Measured values reported in BindingDB's records for doi:10.7270/Q2D50KC1 (The Scripps Research Institute Molecular Screening Center, 2007).

Target: Sphingosine 1-phosphate receptor 3 (Homo sapiens, UniProt Q99500)
Experiment: S1P3 receptor NFAT-BLA reporter inhibition, dose response, counter-screen for 5HT1E antagonist project, CHO cells, Ga15, NFAT beta-lactamase, FRET (AID 776)

Chain of Sphingosine 1-phosphate receptor 3 (Q99500 whole entry): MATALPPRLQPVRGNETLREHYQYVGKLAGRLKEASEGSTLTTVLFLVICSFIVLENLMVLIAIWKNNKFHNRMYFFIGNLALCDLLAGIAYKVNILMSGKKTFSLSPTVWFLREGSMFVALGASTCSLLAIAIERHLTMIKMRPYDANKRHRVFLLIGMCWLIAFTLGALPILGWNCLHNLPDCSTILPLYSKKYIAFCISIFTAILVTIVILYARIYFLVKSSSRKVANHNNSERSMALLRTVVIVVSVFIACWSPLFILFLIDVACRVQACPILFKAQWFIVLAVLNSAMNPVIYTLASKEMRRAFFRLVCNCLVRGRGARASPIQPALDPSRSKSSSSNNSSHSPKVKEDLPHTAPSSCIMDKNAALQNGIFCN

| SMILES | IC50 |
| --- | --- |
| CCN(CC)c1ccc2c(Cl)c(Br)c(=O)oc2c1 | 1.68 µM |
| CCC(NC(=O)Nc1nnc(C(F)(F)F)s1)(C(F)(F)F)C(F)(F)F | > 12.4 µM |
| CC(C)=CCC(C)(C)CNC(=O)NC1CCCCC1 | > 50 µM |
| O=C(Nc1ccc(-c2nc3ncccc3o2)cc1)c1ccc(Br)o1 | > 50 µM |
| O=S1(=O)C=C(Sc2nnc(-c3ccccc3)o2)c2ccccc21 | 2.33 µM |
| CCCOCCOC(=O)c1[nH]c2c(c1C)C(=O)CC(c1cc(OC)ccc1OC)C2 (stereo not drawn) | > 39 µM |
| OCC12C=CC(O1)c1c2c(O)n(-c2ccc(-c3ccccc3)cc2)c1O (stereo not drawn) | > 12.4 µM |
| CCn1nc(-c2ccccc2)nc2c(=O)n(C)c(=O)nc1-2 [1-Ethyl-6-methyl-3-phenyl-1H-pyrimido[5,4-e][1,2,4]triazine-5,7-dione] | 1.08 µM |
| Cn1c(-c2c(N)n(C3CCCC3)c3nc4ccccc4nc23)nc2ccccc21 [1-cyclopentyl-3-(1-methyl-2-benzimidazolyl)-2-pyrrolo[3,2-b]quinoxalinamine] | 2.04 µM |
| CCn1nc(-c2cccs2)nc2c(=O)n(C)c(=O)nc1-2 [1-ethyl-6-methyl-3-thiophen-2-yl-pyrimido[5,4-e][1,2,4]triazine-5,7-dione] | 0.815 µM |
| COc1cc2c(cc1OC)-c1cc(N3CCCc4ccccc43)nc(=O)n1CC2 [2-(3,4-dihydro-2H-quinolin-1-yl)-9,10-dimethoxy-6,7-dihydropyrimido[6,1-a]isoquinolin-4-one] | > 17.7 µM |
| COc1ccc(-n2nnnc2S(=O)(=O)CC(=O)N2CCCCC2)cc1 [2-[1-(4-methoxyphenyl)tetrazol-5-yl]sulfonyl-1-piperidin-1-ylethanone] | 4.32 µM |
| N#CCCS(=O)(=O)c1nnnn1-c1ccccc1 [3-(1-phenyltetrazol-5-yl)sulfonylpropanenitrile] | 3.33 µM |
| COc1ccc(-c2cc(C(F)(F)F)nc(S(C)(=O)=O)n2)cc1OC [4-(3,4-dimethoxyphenyl)-2-methylsulfonyl-6-(trifluoromethyl)pyrimidine] | 5.18 µM |
| COc1cccc(N2CCN(c3ncnc4c3[nH]c3ccccc34)CC2C)c1 (stereo not drawn) [4-[4-(3-methoxyphenyl)-3-methyl-1-piperazinyl]-5H-pyrimido[5,4-b]indole] | 4.3 µM |
| Cc1ccc(S(=O)(=O)Nc2cccc3ncccc23)s1 [5-methyl-N-quinolin-5-ylthiophene-2-sulfonamide] | > 39 µM |
| CCOc1ccc(C2=Nn3c(nnc3-c3ccccc3OC)SC2)cc1 [6-(4-ethoxyphenyl)-3-(2-methoxyphenyl)-7H-[1,2,4]triazolo[3,4-b][1,3,4]thiadiazine] | > 12.4 µM |
| Cc1ccc(-n2nc3c([n+]2[O-])CCc2c-3n[o+]n2[O-])cc1 [7-(4-methylphenyl)-3,6-dioxido-4,5-dihydrotriazolo[4,5-e][2,1,3]benzoxadiazole-3,6-diium] | 5.78 µM |
| COc1cccc(N2CCN(c3ncnc4c3[nH]c3ccc(F)cc34)CC2C)c1 (stereo not drawn) [8-fluoranyl-4-[4-(3-methoxyphenyl)-3-methyl-piperazin-1-yl]-5H-pyrimido[5,4-b]indole] | 0.934 µM |
| COc1ccccc1-c1nnc2n1N=C(c1ccc(O)c(O)c1)CS2 [(4E)-4-[3-(2-methoxyphenyl)-5H-[1,2,4]triazolo[3,4-b][1,3,4]thiadiazin-6-ylidene]-2-oxidanyl-cyclohexa-2,5-dien-1-one] | > 50 µM |
| CC(=O)Nc1cc(OC(C)=O)c2nonc2c1OC(C)=O [Acetic acid 7-acetoxy-5-acetylamino-benzo[1,2,5]oxadiazol-4-yl ester] | 1.82 µM |
| COC(=O)Nc1nc2ccc(Sc3ccccc3)cc2[nH]1 [FENBENDAZOLE] | > 50 µM |

| SMILES | IC50 |
| --- | --- |
| CCn1c(=O)c(C(=O)Nc2nc3ccccc3[nH]2)c(O)c2ccccc21 [MLS000027148] | > 12.4 µM |
| CS(=O)(=O)c1nc(-c2ccccc2)cc(C(F)(F)F)n1 [MLS000044644] | 3.51 µM |
| CS(=O)(=O)c1nc(-c2cccs2)cc(C(F)(F)F)n1 [MLS000044645] | 3.45 µM |
| CS(=O)(=O)c1nc(-c2ccco2)cc(C(F)(F)F)n1 [MLS000044646] | 4.88 µM |
| N#C/C(=C/c1ccc(N2CCCCCC2)o1)c1ccc(F)cc1 [MLS000051438] | 4.69 µM |
| CCOc1cccc(-c2nnc3n2N=C(c2cc(OC)ccc2OC)CS3)c1 [MLS000081451] | > 17.7 µM |
| COc1ccc(-n2c(O)cc(NCc3ccncc3)c2O)cc1 [MLS000099014] | > 50 µM |
| CC(=O)Oc1ccc(-n2c(O)c3c(c2O)C2(C)C=CC3(C)O2)cc1 [MLS000107813] | 7.56 µM |
| O=C(Nc1ccc(N2CCOCC2)cc1)Nc1ccc2nc(-c3ccco3)c(-c3ccco3)nc2c1 [N-(2,3-di-2-furyl-6-quinoxalinyl)-N'-[4-(4-morpholinyl)phenyl]urea] | > 12.4 µM |
| COc1cccc(N2CCN(c3ncnc4c3cnn4-c3ccc(C)cc3C)CC2)c1 [SMR000017007] | 5.06 µM |
| COCCOC(=O)c1[nH]c2c(c1C)C(=O)CC(c1ccccc1)C2 (stereo not drawn) [SMR000025505] | > 50 µM |
| CCCc1nnc2n1N=C(c1ccc(OC)c(OC)c1)CS2 [SMR000057783] | > 50 µM |
| CCCOc1ccc2nc(NC(=O)OC)[nH]c2c1 [SMR000058208] | > 50 µM |
| Cc1ccc(N(CC2=NCCN2)c2cccc(O)c2)cc1 [SMR000059054] | > 50 µM |
| Clc1ccc(-n2nnnc2Sc2ncnc3sccc23)cc1 [SMR000066808] | 7.55 µM |
| COc1cc(NS(=O)(=O)c2ccc(C)cc2)c2ncccc2c1 [SMR000071147] | > 39 µM |
| CN(C)c1nc(OCCNC(=O)COc2ccc(Cl)cc2Cl)nc(N2CCCCC2)n1 [SMR000072558] | > 50 µM |
| COc1cc2c(cc1OC)C1=C(C#N)CC=C(NS(=O)(=O)c3ccccc3)N1CC2 [SMR000092093] | > 50 µM |
| COc1ccc(C2N(c3ccc(F)cc3)C(=O)C3CCCN32)cc1 (stereo not drawn) [SMR000094164] | > 50 µM |
| CSc1ccccc1NC=C1C(=O)CC(C)(C)CC1=O [SMR000111352] | 4.33 µM |
| COC(=O)/C(=C1/Oc2cc(C)oc(=O)c2S1)C(F)(F)F [methyl (2E)-3,3,3-tris(fluoranyl)-2-(6-methyl-4-oxidanylidene-[1,3]oxathiolo[4,5-c]pyran-2-ylidene)propanoate] | 1.42 µM |
